{"source": "paper PMC4876444", "about": "“Two-Photon Enzymatic Probes Visualizing Sub-cellular/Deep-brain Caspase Activities in Neurodegenerative Models” (Scientific Reports, 2016)", "key": {"[1]": {"test_system": "caspase-3-like activities in STS-induced BV2 and HeLa cells", "test": "TPFM live-cell imaging of STS-induced apoptotic cells", "type": "cell-based, mouse, human", "conditions": "BV2 (STS 2 μM) and HeLa (STS 1 μM) cells, 4 h STS, probe 24 μM 1 h; not in mock cells", "experimental": "Figure 3 Bioimaging of active caspases in live cells. TPFM (λex = 760 nm; λem = 480-550 nm for all AAN-probes) of STS-induced (a) BV2 cells (2 μM, 4 h) and (b) HeLa cells (1 μM, 4 h) using C3RA/C8RA (24 μM, 1 h). Panels 3/6: cells pretreated with Z-VAD(OMe)-FMK (50 μM, 1 h) before STS addition. Panels 1/4: normal cells (DMSO). (c) WB analysis of cleaved caspase-3/-8 from (a,b). (d) TPFM of normal/apoptotic Hela cells imaged by C3RA (24 μM, up) or Ac-DEVD-AMC (40 μM, down; λem = 420–500 nm). Panels 1/3: normal cells. Panels 2/4: STS-induced cells (1 μM, 4 h). Bottom inset: bright field. Top inset: one-photon images (λex = 405 nm). (e) Real-time imaging of caspase-3/-8-like activities in live BV2 cells using 24 μM of C3RA (top)/C8RA (bottom) upon STS (2 μM) stimulation over 2 h. (f) Graphical quantification of RFU extracted from (e). (g) WB analysis of time-dependent caspase-3/-8 cleavage from STS-induced (2 μM) BV2 lysates. (h) WB analysis of time-dependent caspase-3/-7/-8 activation by detection of cleaved caspase-3/-7/-8 from lysates of HeLa cells stimulated with STS (2 μM). (i) RFU from real-time imaging of caspase-3-like activity in live HeLa cells with C3RA/C3RM/C3RE (24 μM, added 1 h before STS) upon STS (2 μM) stimulation. (j) Representative images (t = 60 min) from (i). (k) IF of STS-stimulated (2 μM, 2 h) HeLa cells by anti-caspase-3 (p17) antibody (red) with 3D projections of z-stack images at 90° view and merged with MitoTracker (green, left) or ER tracker (cyan, right). (l) TPFM of caspase-1 activation in primary cortical neurons upon glucose deprivation (GD, 8 h) followed by 1-h incubation with C1RB (24 μM) or C1FS (12 μM; λem = 450–550 nm). Inset: bright field images. NC: neuron cells incubated in normal neurobasal medium. Scale bar = 10 μm in all images.\nNIH/3T3, HeLa and BV2 cell lines used in our experiments were cultured in DMEM medium supplemented with 10% (for NIH/3T3 and HeLa) or 5% (for BV2) fetal bovine serum (FBS), with 100.0 mg/L streptomycin and 100 IU/mL penicillin. […]"}, "[2]": {"test": "not given", "remark": "listed apart in the source"}, "[3]": {"test": "not given", "remark": "listed apart in the source"}}, "data": [{"smiles": "CC(=O)N[C@@H](CC(=O)O)C(=O)N[C@@H](CCC(=O)O)C(=O)N[C@H](C(=O)N[C@@H](CC(=O)O)C(=O)Nc1ccc2cc(C(C)=O)ccc2c1)C(C)C", "note": "[C3RA, Ac-DEVD-AAN]", "values": [{"measurement": "λem (emission maximum)", "result": 448, "unit": "nm"}, {"measurement": "intracellular two-photon fluorescence after STS treatment", "setting": "[1]", "result": "strong intracellular fluorescence"}, {"measurement": "λex (absorption/excitation maximum)", "setting": "[2]", "result": 316, "unit": "nm"}, {"measurement": "δΦ (two-photon action cross-section)", "setting": "[3]", "result": 2.9, "unit": "GM"}]}]}
